Measurements from BigSolDB 2.1.

Nc1cccc2c1CN(C1CCC(=O)NC1=O)C2=O (stereo not given)
solubility (mole fraction)
Settings | 273.15 K | 278.15 K | 283.15 K | 288.15 K | 293.15 K | 298.15 K | 303.15 K | 308.15 K | 313.15 K | 318.15 K
in acetonitrile | 0.000444 | 0.000458 | 0.000476 | 0.000496 | 0.000516 | 0.000536 | 0.000558 | 0.000579 | 0.000601 | 0.000623
in ethyl acetate | 8e-05 | 9.2e-05 | 0.000105 | 0.00012 | 0.000136 | 0.000152 | 0.000168 | 0.000186 | 0.000206 | 0.000226
in isopropanol | 2.5e-05 | 3.2e-05 | 4.1e-05 | 5.2e-05 | 6.6e-05 | 8e-05 | 9.5e-05 | 0.000114 | 0.000136 | 0.00016
in methanol | 0.00019 | 0.000204 | 0.00022 | 0.000237 | 0.000256 | 0.000276 | 0.000301 | 0.000326 | 0.000351 | 0.000383
